Assay [1] has as its target human recombinant histamine H1 receptor (Homo sapiens, UniProt P35367). The experiment in a line: Histamine H1 radioligand binding assay ([3H]Pyrilamine). The note with it: receptor expressed in CHO cells; for inhibition at 1 µM: compound at 1 μM; for inhibition at 0.1 µM: compound at 0.1 μM. An outline of the steps: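 Membranes from CHO cells expressing the receptor, in 50 mM Tris-HCl pH 7.4 with 2 mM MgCl2, 100 mM NaCl and 250 mM sucrose, incubated with 1.2 nM [3H]pyrilamine for 180 min at 25° C; nonspecific binding defined with 1 μM pyrilamine.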

The target of assay [2] is T1, human recombinant histamine H2 receptor (Homo sapiens, UniProt P25021).
T1 construct: expressed in transfected cells; host or cells: Chinese hamster ovary (CHO) K1 cells
T1 sequence (P25021 whole entry): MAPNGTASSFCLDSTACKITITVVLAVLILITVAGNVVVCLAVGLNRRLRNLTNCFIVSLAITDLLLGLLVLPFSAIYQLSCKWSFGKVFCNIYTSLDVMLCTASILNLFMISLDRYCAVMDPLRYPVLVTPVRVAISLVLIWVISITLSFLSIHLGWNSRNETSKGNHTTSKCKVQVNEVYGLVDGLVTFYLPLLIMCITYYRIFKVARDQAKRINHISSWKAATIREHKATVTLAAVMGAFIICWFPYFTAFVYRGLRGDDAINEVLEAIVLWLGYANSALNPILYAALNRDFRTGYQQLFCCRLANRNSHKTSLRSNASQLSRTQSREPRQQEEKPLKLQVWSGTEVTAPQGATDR
Kind of assay: Histamine H2 radioligand binding assay ([125I]Aminopotentidine). The note with it: compound at 1 μM; 0.1 nM [125I]Aminopotentidine; receptor expressed in CHO-K1 cells. Here is the method:
To evaluate in radioligand binding assays the activity of compounds of the invention, human recombinant histamine H2 receptor expressed in Chinese hamster ovary (CHO) K1 cells (Ruat, M., Proc. Natl. Acad. Sci. USA. 87(5):1658, 1990) in a 50 mM Phosphate buffer, pH 7.4 was used. Compounds of the invention were incubated with 0.1 nM [^125I]Aminopotentidine for 120 min at 25° C. Non-specific binding was estimated in the presence of 3 μM Tiotidine. Receptor proteins were filtered and washed, the filters were then counted to determine [^125I]Aminopotentidine specifically bound. Compounds were screened at 1 μM or lower, using 1% DMSO as vehicle. Biochemical assay results are presented as the percent inhibition of specific binding in Table 2.

In assay [3] the target is T2, human recombinant adrenergic α1D receptor (Homo sapiens, UniProt P25100).
T2 construct: expressed in transfected cells; host or cells: human embryonic kidney (HEK-293) cells
T2 sequence (P25100 1-572): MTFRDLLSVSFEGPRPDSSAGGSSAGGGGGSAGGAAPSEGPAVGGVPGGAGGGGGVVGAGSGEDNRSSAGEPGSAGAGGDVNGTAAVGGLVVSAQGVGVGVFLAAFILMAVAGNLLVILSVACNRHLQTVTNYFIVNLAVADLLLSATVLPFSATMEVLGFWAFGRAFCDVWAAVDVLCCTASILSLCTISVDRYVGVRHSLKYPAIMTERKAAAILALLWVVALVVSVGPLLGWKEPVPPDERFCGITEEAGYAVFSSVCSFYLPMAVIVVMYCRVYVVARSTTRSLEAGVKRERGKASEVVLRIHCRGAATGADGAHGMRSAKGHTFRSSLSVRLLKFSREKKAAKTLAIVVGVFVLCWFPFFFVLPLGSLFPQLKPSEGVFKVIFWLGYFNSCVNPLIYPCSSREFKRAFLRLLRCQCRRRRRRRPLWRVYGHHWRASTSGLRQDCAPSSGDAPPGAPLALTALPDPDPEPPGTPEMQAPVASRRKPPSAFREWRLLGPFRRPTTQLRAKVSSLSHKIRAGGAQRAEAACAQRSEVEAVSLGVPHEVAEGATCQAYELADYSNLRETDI
Kind of assay: Adrenergic α1D radioligand binding assay ([3H]Prozosin). The note with it: 0.6 nM [3H]Prozosin, HEK-293 cells; for inhibition at 1 µM: compound at 1 μM, read-out: Percent Inhibition of ligand binding, Adrenergic (1 μM) a1D; for inhibition at 0.1 µM: compound at 0.1 μM, read-out: Percent Inhibition of ligand binding, Adrenergic (0.1 μM) a1D. Here is the method: Compounds of invention were incubated with 0.6 nM [^3H]Prozosin for 60 min at 25° C. Non-specific binding was estimated in the presence of 10 μM phentolamine Receptor proteins were filtered and washed, the filters were then counted to determine [^3H]Prozosin specifically bound.

For assay [4], the target named is T3, rat adrenergic α1B receptor (Rattus norvegicus, UniProt P15823).
T3 construct: from tissue; host or cells: Wistar Rat liver
T3 sequence (P15823 1-515): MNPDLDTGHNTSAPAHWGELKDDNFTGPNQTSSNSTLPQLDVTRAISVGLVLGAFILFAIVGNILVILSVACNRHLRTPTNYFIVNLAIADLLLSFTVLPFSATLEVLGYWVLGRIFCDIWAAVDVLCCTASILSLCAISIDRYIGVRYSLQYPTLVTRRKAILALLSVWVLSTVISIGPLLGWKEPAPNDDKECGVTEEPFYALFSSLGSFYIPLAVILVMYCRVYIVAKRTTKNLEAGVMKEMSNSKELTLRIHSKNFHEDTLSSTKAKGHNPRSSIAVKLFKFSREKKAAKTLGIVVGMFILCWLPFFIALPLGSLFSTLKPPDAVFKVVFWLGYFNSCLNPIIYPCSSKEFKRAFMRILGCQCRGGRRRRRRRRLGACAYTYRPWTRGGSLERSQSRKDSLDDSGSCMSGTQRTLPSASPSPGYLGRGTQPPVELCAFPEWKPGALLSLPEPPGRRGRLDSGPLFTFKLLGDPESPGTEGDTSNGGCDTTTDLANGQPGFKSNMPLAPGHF
The experiment in a line: Adrenergic α1B radioligand binding assay ([3H]Prozosin). The note with it: compound at 0.1 μM; 0.25 nM [3H]Prozosin; Wistar Rat liver; read-out: Percent Inhibition of ligand binding, Adrenergic (0.1 μM) a1B. Here is the method: To evaluate in radioligand binding assays the activity of compounds of the invention, rat adrenergic α1B receptor obtained from Wistar Rat liver (Garcia-S'ainz, J. A. et al., Biochem. Biophys. Res. Commun. 186:760, 1992; Michel A. D. et al., Br. J. Pharmacol. 98:883, 1989) in a modified Tris-HCl buffer (50 mM Tris-HCl buffer, pH 7.4, 0.5 mM EDTA) is used. Compounds of the invention are incubated with 0.25 nM [^3H]Prozosin for 60 min at 25° C. Non-specific binding is estimated in the presence of 10 μM phentolamine. Receptor proteins are filtered and washed, the filters are then counted to determine [^3H]Prozosin specifically bound. Compounds are screened at 1 μM or lower, using 1% DMSO as vehicle. Compounds of the invention are tested in this biochemical assay and percent inhibition of specific binding is determined.

The target of assay [5] is T4, human recombinant serotonin (5-Hydroxytryptamine) 5-HT5A receptor (Homo sapiens, UniProt P47898).
T4 construct: expressed in transfected cells; host or cells: Chinese hamster ovary (CHO-K1) cells
T4 sequence (P47898 whole entry): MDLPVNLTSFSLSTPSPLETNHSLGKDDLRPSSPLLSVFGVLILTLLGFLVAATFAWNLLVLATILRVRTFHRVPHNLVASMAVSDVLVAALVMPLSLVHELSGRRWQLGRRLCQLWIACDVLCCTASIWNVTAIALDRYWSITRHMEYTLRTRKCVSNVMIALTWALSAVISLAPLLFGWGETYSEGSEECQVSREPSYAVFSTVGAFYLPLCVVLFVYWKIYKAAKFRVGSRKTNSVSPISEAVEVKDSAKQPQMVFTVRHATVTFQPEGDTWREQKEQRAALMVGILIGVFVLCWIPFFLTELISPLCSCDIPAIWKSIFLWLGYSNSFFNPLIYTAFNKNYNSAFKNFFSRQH
Kind of assay: Serotonin 5-HT5A radioligand binding assay ([3H]LSD). The note with it: compound at 0.1 μM; 1.7 nM [3H]LSD; CHO-K1 cells; read-out: Percent Inhibition of ligand binding, Serotonin (0.1 μM) 5-HT5A. Here is the method: Compounds of the invention were incubated with 1.7 nM [^3H]Lysergic acid diethylamide (LSD) for 60 min at 37° C. […] Receptor proteins were filtered and washed, the filters were then counted to determine [^3H]LSD specifically bound. Compounds were screened at 1 μM or lower, using 1% DMSO as vehicle. Compounds of the invention were tested in this biochemical assay and percent inhibition of specific binding was determined. Biochemical assay results are presented as the percent inhibition of specific binding in Table 4.

Sequence of human recombinant histamine H1 receptor (P35367 whole entry): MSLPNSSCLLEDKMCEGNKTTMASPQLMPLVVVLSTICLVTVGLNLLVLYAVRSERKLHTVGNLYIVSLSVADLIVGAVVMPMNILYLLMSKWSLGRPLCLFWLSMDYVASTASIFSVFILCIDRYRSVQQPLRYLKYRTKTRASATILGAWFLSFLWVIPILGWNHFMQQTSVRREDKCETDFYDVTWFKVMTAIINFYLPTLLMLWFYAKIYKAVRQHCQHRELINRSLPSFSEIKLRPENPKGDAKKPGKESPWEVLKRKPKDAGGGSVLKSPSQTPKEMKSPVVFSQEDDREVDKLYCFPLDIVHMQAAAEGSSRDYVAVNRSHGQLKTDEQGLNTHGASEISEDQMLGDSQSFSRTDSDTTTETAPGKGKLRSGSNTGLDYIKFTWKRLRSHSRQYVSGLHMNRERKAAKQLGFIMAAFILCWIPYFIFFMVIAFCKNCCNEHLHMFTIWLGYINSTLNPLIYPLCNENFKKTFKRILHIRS

Broadly, the inhibition is the drop in the measured response relative to a control, in per cent. As to `Cc1ccc2c(c1)c1c(n2CC(C)(C)c2ccncc2)CCN(C)C1` [Compound 1-49, 2,8-dimethyl-5-(2-methyl-2-(pyridin-4-yl)propyl)-2,3,4,5-tetrahydro-1H-pyrido[4,3-b]indole], the inhibition at 1 µM in assay [1] is 94%.

Consider `Cc1ccc2c(c1)c1c(n2CCc2ccc(CCCN)nc2)CCN(C)C1` [Compound 1-40, 3-(5-(2-(2,8-dimethyl-3,4-dihydro-1H-pyrido[4,3-b]indol-5(2H)-yl)ethyl)pyridin-2-yl)propan-1-amine], for which the values for the inhibition at 1 µM in assay [1], in assay [2] and in assay [3] were 81%, 18% and 53%, respectively.

Regarding `Cc1ccc2c(c1)c1c(n2CCc2ccc(C(F)(F)F)nc2)CCNC1` [Compound 1-41, 8-methyl-5-(2-(6-(trifluoromethyl)pyridin-3-yl)ethyl)-2,3,4,5-tetrahydro-1H-pyrido[4,3-b]indole], the inhibition at 1 µM in assay [1] turned out to be 72%; in assay [2] it was 6%; in assay [3] it was 74%.

As for `CN1CCc2c(c3cc(Cl)c(Cl)cc3n2CC(C)(O)c2ccncc2)C1` (stereo not shown) [Compound 1-17, 1-(7,8-dichloro-2-methyl-3,4-dihydro-1H-pyrido[4,3-b]indol-5(2H)-yl)-2-(pyridin-4-yl)propan-2-ol], the inhibition at 0.1 µM in assay [4] is 55%.

In the case of `Cc1ccc2c(c1)c1c(n2CCc2ccc(C)nc2)CCN(CCC#N)C1` [Compound 1-34, 3-(8-methyl-5-(2-(6-methylpyridin-3-yl)ethyl)-3,4-dihydro-1H-pyrido[4,3-b]indol-2(5H)-yl)propanenitrile], the inhibition at 1 µM in assay [1] is 65%; in assay [2], 0%; in assay [3] it was 6%.

For the molecule `CN1CCc2c(c3cc(Cl)ccc3n2CC(=O)c2ccccc2)C1` [Compound 1-36, 2-(8-chloro-2-methyl-3,4-dihydro-1H-pyrido[4,3-b]indol-5(2H)-yl)-1-phenylethanone], the results for the inhibition at 1 µM in assay [1], in assay [2] and in assay [3] were 84%, 48% and 52%, respectively.

Regarding `CC[C@@](O)(Cn1c2c(c3cc(C)ccc31)CN(C)CC2)c1ccc(F)cc1` [Compound 1-66, (S)-1-(2,8-dimethyl-3,4-dihydro-1H-pyrido[4,3-b]indol-5(2H)-yl)-2-(4-fluorophenyl)butan-2-ol], the results for the inhibition at 0.1 µM in assay [4], in assay [1] and in assay [5] were 11%, -12% and 31%, respectively.

For the molecule `Cc1ccc2c(c1)c1c(n2CC(C)c2ccncc2)CCN(C)C1` (stereo not shown) [Compound 1-46, 2,8-dimethyl-5-(2-(pyridin-4-yl)propyl)-2,3,4,5-tetrahydro-1H-pyrido[4,3-b]indole], the inhibition at 1 µM in assay [1] came to 90%.

As to `Cc1ccc2c(c1)c1c(n2CC(=O)c2ccc(F)cc2)CCN(C)C1` [Compound 1-39, 2-(2,8-dimethyl-3,4-dihydro-1H-pyrido[4,3-b]indol-5(2H)-yl)-1-(4-fluorophenyl)ethanone], the inhibition at 1 µM worked out at 86% in assay [1], 66% in assay [2] and 57% in assay [3].

Regarding `Cc1ccc2c(c1)c1c(n2CC(=O)c2ccccc2)CCN(C)C1` [Compound 1-35, 2-(2,8-dimethyl-3,4-dihydro-1H-pyrido[4,3-b]indol-5(2H)-yl)-1-phenylethanone], the inhibition at 1 µM in assay [1] was 52%; in assay [2], 11%; in assay [3] it was 18%.

Take `CN1CCc2c(c3cc(Cl)ccc3n2CC(O)c2ccncc2)C1` (stereo not shown) [Compound 1-11, 2-(8-chloro-2-methyl-3,4-dihydro-1H-pyrido[4,3-b]indol-5(2H)-yl)-1-(pyridin-4-yl)ethanol]: the inhibition at 0.1 µM in assay [4] worked out at 60%.

Consider `Cc1ccc2c(c1)c1c(n2CC(O)c2ccncc2)CCN(C)C1` (stereo not shown) [Compound 1-8, 2-(2,8-dimethyl-3,4-dihydro-1H-pyrido[4,3-b]indol-5(2H)-yl)-1-(pyridin-4-yl)ethanol], for which, in assay [4], the inhibition at 0.1 µM stood at 54%.

As for `CN1CCc2c(c3cc(Cl)ccc3n2CC(=O)c2ccc(F)cc2)C1` [Compound 1-37, 2-(8-chloro-2-methyl-3,4-dihydro-1H-pyrido[4,3-b]indol-5(2H)-yl)-1-(4-fluorophenyl)ethanone], the inhibition at 1 µM in assay [1] was determined as 83%; in assay [2], 80%; in assay [3] it was 56%.

As to `CC[C@@](O)(Cn1c2c(c3cc(C)ccc31)CN(C)CC2)c1ccncc1` [Compound 1-62, (S)-1-(2,8-Dimethyl-3,4-dihydro-1H-pyrido[4,3-b]indol-5(2H)-yl)-2-(pyridine-4-yl)butan-2-ol], the inhibition at 0.1 µM in assay [1] stood at 3%; in assay [5], 6%; in assay [3] it was 6%.

On to `Cc1ccc2c(c1)c1c(n2CCc2ccc(C)nc2)CCN(CCCO)C1` [Compound 1-42, 3-(8-methyl-5-(2-(6-methylpyridin-3-yl)ethyl)-3,4-dihydro-1H-pyrido[4,3-b]indole-2(5H)-yl)propan-1-ol], for which the inhibition at 1 µM in assay [1] amounted to 93%; in assay [2], 16%; in assay [3] it was 55%.

Turning to `COc1ccc([C@](C)(O)Cn2c3c(c4cc(C)ccc42)CN(C)CC3)cc1` [Compound 1-20, (S)-1-(2,8-Dimethyl-3,4-dihydro-1H-pyrido[4,3-b]indol-5(2H)-yl)-2-(4-methoxyphenyl)propan-2-ol], the inhibition at 0.1 µM in assay [4] is 63%; in assay [3], 22%.

In the case of `CN1CCc2c(c3cc(Cl)ccc3n2CC(=O)c2ccc(Cl)cc2)C1` [Compound 1-38, 2-(8-chloro-2-methyl-3,4-dihydro-1H-pyrido[4,3-b]indol-5(2H)-yl)-1-(4-chlorophenyl)ethanone], the inhibition at 1 µM in assay [1] came to 91%; in assay [2], 56%; in assay [3] it was 56%.

The record behind these values is US9255094B2, “Pyrido[4,3-B]indoles and methods of use” (Medivation Technologies, Inc., priority 2009, dated 2016).
